Results reported in patent US20030087906A1, “NITROGEN SUBSTITUTED BIARYL PURINE DERIVATIVES AS POTENT ANTIPROLIFERATIVE AGENTS” (priority 2001, published 2003).

How the values were obtained:
Test in all cases: NCI 60-cell line growth inhibition assay
Format in all cases: cell-based
[1] = system: SNB-75; details: Homo sapiens; SNB-75 (CNS)
[2] = system: CCRF-CEM; details: Homo sapiens; CCRF-CEM (Leukemia)
[3] = system: NCI-H460; details: Homo sapiens; NCI-H460 (Non-Small Cell Lung)
[4] = system: BT-549; details: Homo sapiens; BT-549 (Breast)
[5] = system: SF-539; details: Homo sapiens; SF-539 (CNS)
[6] = system: NCI-H522; details: Homo sapiens; NCI-H522 (Non-Small Cell Lung)
[7] = system: COLO 205; details: Homo sapiens; COLO 205 (Colon)
[8] = system: UO-31; details: Homo sapiens; UO-31 (Renal)
[9] = system: SR; details: Homo sapiens; SR (Leukemia)
[10] = system: 786-0; details: Homo sapiens; 786-0 (Renal)
[11] = system: HS 578T; details: Homo sapiens; HS 578T (Breast)
[12] = system: NCI-H23; details: Homo sapiens; NCI-H23 (Non-Small Cell Lung)
[13] = system: IGROV1; details: Homo sapiens, IGROV-1; IGROV1 (Ovarian)
[14] = system: SK-MEL-28; details: Homo sapiens; SK-MEL-28 (Melanoma)
[15] = system: LOX IMVI; details: Homo sapiens; LOX IMVI (Melanoma)
[16] = system: SK-OV-3; details: Homo sapiens; SK-OV-3 (Ovarian)
[17] = system: SN12C; details: Homo sapiens; SN12C (Renal)
[18] = system: PC-3; details: Homo sapiens; PC-3 (Prostate)
[19] = system: OVCAR-4; details: Homo sapiens; OVCAR-4 (Ovarian)
[20] = system: HOP-92; details: Homo sapiens; HOP-92 (Non-Small Cell Lung)
[21] = system: NCI-H322M; details: Homo sapiens; NCI-H322M (Non-Small Cell Lung)
[22] = system: MDA-MB-231/ATCC; details: Homo sapiens; MDA-MB-231/ATCC (Breast)
[23] = system: K-562; details: Homo sapiens, K562; K-562 (Leukemia)
[24] = system: OVCAR-3; details: Homo sapiens; OVCAR-3 (Ovarian)
[25] = system: SK-MEL-5; details: Homo sapiens; SK-MEL-5 (Melanoma)
[26] = system: HCT-116; details: Homo sapiens; HCT-116 (Colon)
[27] = system: A498; details: Homo sapiens; A498 (Renal)
[28] = system: HT29; details: Homo sapiens, HT-29; HT29 (Colon)
[29] = system: NCI/ADR-RES; details: Homo sapiens; NCI/ADR-RES (Breast)
[30] = system: UACC-257; details: Homo sapiens; UACC-257 (Melanoma)
[31] = system: HCT-15; details: Homo sapiens; HCT-15 (Colon)
[32] = system: KM12; details: Homo sapiens; KM12 (Colon)
[33] = system: RXF 393; details: Homo sapiens; RXF 393 (Renal)
[34] = system: M14; details: Homo sapiens; M14 (Melanoma)
[35] = system: TK-10; details: Homo sapiens; TK-10 (Renal)
[36] = system: OVCAR-5; details: Homo sapiens; OVCAR-5 (Ovarian)
[37] = system: SNB-19; details: Homo sapiens; SNB-19 (CNS)
[38] = system: SF-295; details: Homo sapiens; SF-295 (CNS)
[39] = system: MOLT-4; details: Homo sapiens; MOLT-4 (Leukemia)
[40] = system: MDA-MB-435; details: Homo sapiens; MDA-MB-435 (Breast)
[41] = system: HCC-2998; details: Homo sapiens; HCC-2998 (Colon)

Work on CC[C@H](CO)Nc1nc(NCc2ccc(-c3cccc([N+](=O)[O-])c3)cc2)c2ncn(C(C)C)c2n1 [Compound 48] yielded a GI50 [1] of under 10 nM, a GI50 [2] of 30 nM and a GI50 [3] of 250 nM. It also gave a GI50 [4] of 10 nM, a GI50 [5] of 380 nM and a GI50 [6] of under 10 nM. For the same molecule, the GI50 [7] was 30 nM, the GI50 [8] was under 10 nM and the GI50 [9] was 160 nM. It also gave a GI50 [10] of 250 nM, a GI50 [11] of 30 nM and a GI50 [12] of 70 nM. It also gave a GI50 [13] of 230 nM, a GI50 [14] of under 10 nM and a GI50 [15] of 190 nM. It also gave a GI50 [16] of 1380 nM, a GI50 [17] of 30 nM and a GI50 [18] of 230 nM. For the same molecule, the GI50 [19] was 200 nM, the GI50 [20] was 460 nM and the GI50 [21] was 30 nM. The GI50 [22] was 90 nM, the GI50 [23] was 160 nM and the GI50 [24] was 170 nM. For the same molecule, the GI50 [25] was 170 nM, the GI50 [26] was 190 nM and the GI50 [27] was 390 nM. For the same molecule, the GI50 [28] was under 10 nM, the GI50 [29] was 120 nM and the GI50 [30] was 40 nM. It also gave a GI50 [31] of 20 nM, a GI50 [32] of 20 nM and a GI50 [33] of under 10 nM. For the same molecule, the GI50 [34] was under 10 nM, the GI50 [35] was 370 nM and the GI50 [36] was 160 nM. It also gave a GI50 [37] of 20 nM, a GI50 [38] of 240 nM and a GI50 [39] of 50 nM.
For CC(=O)N[C@H]1CC[C@H](Nc2nc(NCc3ccc(-c4ccccn4)cc3)c3ncn(C(C)C)c3n2)CC1 [Compound 79], the GI50 [1] was under 10 nM, the GI50 [2] was under 10 nM and the GI50 [3] was under 10 nM. It also gave a GI50 [4] of under 10 nM, a GI50 [5] of under 10 nM and a GI50 [6] of under 10 nM. The GI50 [7] was under 10 nM, the GI50 [8] was under 10 nM and the GI50 [9] was under 10 nM. It also gave a GI50 [10] of under 10 nM, a GI50 [11] of under 10 nM and a GI50 [12] of under 10 nM. It also gave a GI50 [13] of under 10 nM, a GI50 [14] of under 10 nM and a GI50 [15] of under 10 nM. The GI50 [16] was under 10 nM, the GI50 [17] was under 10 nM and the GI50 [18] was under 10 nM. It also gave a GI50 [19] of under 10 nM, a GI50 [20] of under 10 nM and a GI50 [21] of under 10 nM. The GI50 [22] was under 10 nM, the GI50 [23] was under 10 nM and the GI50 [24] was under 10 nM. It also gave a GI50 [25] of under 10 nM, a GI50 [26] of under 10 nM and a GI50 [27] of under 10 nM. For the same molecule, the GI50 [28] was under 10 nM, the GI50 [29] was 860 nM and the GI50 [40] was under 10 nM. It also gave a GI50 [30] of under 10 nM, a GI50 [31] of under 10 nM and a GI50 [32] of under 10 nM. The GI50 [33] was under 10 nM, the GI50 [41] was under 10 nM and the GI50 [34] was under 10 nM. It also gave a GI50 [35] of under 10 nM, a GI50 [36] of under 10 nM and a GI50 [37] of under 10 nM. It also gave a GI50 [38] of under 10 nM and a GI50 [39] of under 10 nM.
Cn1cnc2c(NCc3ccccc3)nc(NCCO)nc21 [Olomoucine, reference compound] showed a GI50 [1] of 25000 nM, a GI50 [2] of 40000 nM and a GI50 [3] of 63000 nM. For the same molecule, the GI50 [4] was 79000 nM, the GI50 [5] was 32000 nM and the GI50 [6] was 40000 nM. The GI50 [7] was 32000 nM, the GI50 [8] was 32000 nM and the GI50 [9] was 25000 nM. The GI50 [10] was 63000 nM, the GI50 [11] was 63000 nM and the GI50 [12] was 79000 nM. For the same molecule, the GI50 [13] was 40000 nM, the GI50 [14] was 50000 nM and the GI50 [15] was 32000 nM. For the same molecule, the GI50 [16] was 100000 nM, the GI50 [17] was 100000 nM and the GI50 [18] was 100000 nM. It also gave a GI50 [19] of 100000 nM, a GI50 [20] of 50000 nM and a GI50 [21] of 63000 nM. The GI50 [22] was 100000 nM, the GI50 [23] was 100000 nM and the GI50 [24] was 79000 nM. It also gave a GI50 [25] of 40000 nM, a GI50 [26] of 40000 nM and a GI50 [27] of 32000 nM. For the same molecule, the GI50 [28] was 63000 nM, the GI50 [29] was 100000 nM and the GI50 [40] was 63000 nM. The GI50 [30] was 79000 nM, the GI50 [31] was 40000 nM and the GI50 [32] was 40000 nM. The GI50 [33] was 20000 nM, the GI50 [41] was 63000 nM and the GI50 [34] was 100000 nM. For the same molecule, the GI50 [35] was 63000 nM, the GI50 [36] was 40000 nM and the GI50 [37] was 63000 nM. The GI50 [38] was 79000 nM and the GI50 [39] was 63000 nM.
In the case of CC(=O)N[C@H]1CC[C@H](Nc2nc(NCc3ccc(-c4ccccc4)nc3)c3ncn(C(C)C)c3n2)CC1 [Compound 87], the GI50 [1] is reported as 12 nM, the GI50 [2] is reported as under 10 nM and the GI50 [3] is reported as 220 nM. The GI50 [4] was 20 nM, the GI50 [5] was 81 nM and the GI50 [6] was under 10 nM. It also gave a GI50 [7] of under 10 nM, a GI50 [8] of 16 nM and a GI50 [9] of 32 nM. It also gave a GI50 [10] of 47 nM, a GI50 [11] of under 10 nM and a GI50 [12] of 22 nM. For the same molecule, the GI50 [13] was 52 nM, the GI50 [14] was under 10 nM and the GI50 [15] was 27 nM. The GI50 [16] was 350 nM, the GI50 [17] was under 10 nM and the GI50 [18] was 18 nM. The GI50 [19] was 48 nM, the GI50 [20] was 88 nM and the GI50 [22] was under 10 nM. For the same molecule, the GI50 [23] was 24 nM, the GI50 [24] was 50 nM and the GI50 [25] was 28 nM. For the same molecule, the GI50 [26] was 37 nM, the GI50 [27] was 100 nM and the GI50 [28] was under 10 nM. For the same molecule, the GI50 [29] was 280 nM, the GI50 [40] was under 10 nM and the GI50 [31] was 66 nM. It also gave a GI50 [32] of under 10 nM, a GI50 [33] of 11 nM and a GI50 [41] of under 10 nM. The GI50 [34] was under 10 nM, the GI50 [35] was 29 nM and the GI50 [36] was 51 nM. It also gave a GI50 [37] of 38 nM, a GI50 [38] of 47 nM and a GI50 [39] of 20 nM.
